Reference: patent publication US20200289434A1, “RAPIDLY IMPROVING ENDOTHELIAL FUNCTION, REDUCING ARTERIAL STIFFNESS AND REVERSING CALCIFICATION OF BLOOD VESSELS BY ADMINISTERING VITAMIN K” (KAYDENCE PHARMA AS, priority 2019, published 2020)

What was measured:
[1] = Example 3 second part: lipid profile, liver enzymes and blood count; settings: eight weeks
[2] = system: endothelial nitric oxide synthase (eNOS)-dependent nitric oxide (NO) production; test: Example 3: endothelial NO production in ex vivo aorta by EPR; settings: 0.05 mg/kg b.w./day, vs untreated age-matched mice
Excerpt: For measurements of endothelial nitric oxide synthase (eNOS)-dependent nitric oxide (NO) production, EPR spin-trapping with diethyldithiocarbamic acid sodium salt (DETC) was used ex vivo, as described in Przyborowski K, Proniewski B, Czarny J, Smeda M, Sitek B, Zakrzewska A, et al. Vascular Nitric Oxide-Superoxide Balance and Thrombus Formation after Acute Exercise. Med Sci Sport Exerc 2018:1. doi:10.1249/MSS.0000000000001589, with minor modifications. Isolated aorta cleared from surrounding tissue was opened longitudinally and preincubated with 10 μM L-NIL (N6-(1-Iminoethyl)-lysine, hydrochloride) in Krebs-HEPES buffer for 30 minutes at 37° C. in a well of a 48-well plate. Next, 250 μL of Fe(DETC)2 colloid was added and aorta was stimulated with calcium ionophore A23187 (the final concentration was 1 μM) and subsequently, incubated for 90 minutes at 37° C. Finally, aorta was weighed and frozen in liquid nitrogen (suspended in fresh buffer) into the middle of a 400 μL column of Krebs-Hepes buffer and stored at −80° C. until measured. EPR spectra were obtained using an X-band EPR spectrometer (EMX Plus, Bruker, Germany), equipped with a rectangular resonator cavity H102. Signals were quantified by measuring the total amplitude of the NO—Fe(DETC)2 after correction of baseline. The quantitative results of NO production assessed by EPR were expressed in AU/mg of tissue.

ApoE/LDLR−/− mice [3] = test: Example 3 second part: histological assessment of area and composition of atherosclerotic plaque in BCA; type: in vivo; settings: eight weeks
Excerpt: For the determination of atherosclerotic plaque area and composition isolated brachiocephalic artery (BCA) was dissected, fixed in 4% buffered formalin, and embedded in paraffin. 5 μm-thick serial sections of BCA were collected from the proximal to distal part of the artery. Staining with Unna's orcein combined with Martius, Scarlet and Blue trichrome (OMSB) was applied on every tenth section (50 μm interval between each section) for quantitative analysis of atherosclerotic plaques. The areas of particular components of atherosclerotic plaque as well as artery lumen and wall were determined after Columbus-based software processing (FIG. 9) using specially-designed algorithm as described in Gajda M, Jasztal A, Banasik T, Jasek-Gajda E, Chlopicki S. Combined orcein and martius scarlet blue (OMSB) staining for qualitative and quantitative analyses of atherosclerotic plaques in brachiocephalic arteries in apoE/LDLR−/− mice. Histochem Cell Biol 2017. doi:10.1007/s00418-017-1538-8. The parameters analyzed include vessel wall area (VWA), internal vessel area (IVA=plaque area+lumen area), plaque area (expressed as percent of internal wall area: plaque/IWA), and lumen area (expressed as percent of internal wall area: lumen/IWA).

[4] = mouse, in vivo
ApoE/LDLR−/− mice [5] = test: Example 2: histological assessment of plaque size, composition and vessel wall area in BCA; type: in vivo; settings: two months
Excerpt: Plaque size and composition as well as vessel wall area (VWA) in BCA-Histological assessment, cross-section method, BCA cross-sections: total 13000 slides, Photographed: 1214 slides
For the determination of atherosclerotic plaque area and composition BCA was dissected, fixed in 4% buffered formalin and embedded in paraffin. 5 μm-thick serial sections of BCA were collected from proximal, middle and distal parts of artery. Originally developed staining with Unna's orcein combined with Martius, Scarlet and Blue trichrome (OMSB), was applied on every tenth section (50 μm interval between each section) for visualization of collagen, elastin, fibrin, red blood cells and vascular smooth muscle cells within atherosclerotic plaque. The areas of particular components of atherosclerotic plaque as well as artery lumen and wall were determined after Columbus-based software processing (FIG. 1B) using a previously developed algorithm [Gajda M, Jasztal A, Banasik T, Jasek-Gajda E, Chlopicki S. Combined orcein and martius scarlet blue (OMSB) staining for qualitative and quantitative analyses of atherosclerotic plaques in brachiocephalic arteries in apoE/LDLR−/− mice. Histochem Cell Biol 2017. doi:10.1007/s00418-017-1538-81.

matrix gla protein (MGP) = test: Clinical study: blood analysis of matrix gla protein carboxylation; type: in vivo, human; settings: kidney transplant patients, 360 ug/day, 8 weeks
Experimental: Participants were enrolled in a clinical trial in which the effects of vitamin K2 were determined for patients who had recently undergone a kidney transplant. At the beginning of the study, patients were subjected to a non-invasive pulse wave velocity measurement to measure arterial stiffness/flexibility, as well as blood analysis. The study participants were then instructed to receive a specific daily dose of MenaQ7 vitamin K2 menaquinone-7 (360 ug/day) for a total of 8 weeks. At the end of 8 weeks, patients were again examined with a follow-up examination, a non-invasive pulse wave velocity measurement and blood analysis and drug treatment was discontinued.
As part of the blood analysis, carboxylated matrix gla protein (MGP) was measured as a direct measure of vitamin K2 activity. The carboxylated MGP inhibits calcification of blood vessels and Vitamin K2 stimulates carboxylation of MGP.

[6] = mouse, in vivo; remark: listed apart in the source
[7] = lower dose, not visible for entire vessel

CC(C)=CCC/C(C)=C/CC/C(C)=C/CC/C(C)=C/CC/C(C)=C/CC/C(C)=C/CC/C(C)=C/CC1=C(C)C(=O)c2ccccc2C1=O [MK-7, menaquinone-7]
MPV ([1]; 0.03 mg/kg): 5.20 ± 0.33
MPV ([1]; 10 mg/kg): 4.97 ± 0.19
nitric oxide production in ex vivo aorta by EPR [2]: increased
plaque and lumen area expressed as percent of IWA (ApoE/LDLR−/− mice [3]; either low or high dose): did not change
plaque size vs non-treated mice (ApoE/LDLR−/− mice [3]; low (0.03) or high (10 mg/kg b.w./day) dose): not different
decrease in vessel wall area (VWA) (ApoE/LDLR−/− mice [3]; low and high dose, 24-week-old mice): about 5%
internal wall area (IWA) (ApoE/LDLR−/− mice [3]; [7]): decreased only in the middle part of the vessel
vitamin K1 and K1 2,3-epoxide plasma concentration [4]: tent to decrease
concentration of MK4 2,3-epoxide in plasma ([4]; 5 mg/kg/day): maintained at similar level
plasma concentration of K2 (MK-7) ([4]; 5 mg/kg/day): dose-dependent increase
plasma concentration of MK-4 ([4]; 5 mg/kg/day): dose-dependent increase
effect on plaque size (ApoE/LDLR−/− mice [5]; either low or high dose): did not result in a beneficial effect
plaque and lumen area expressed as percent of IWA (ApoE/LDLR−/− mice [5]; either low or high dose): did not change
internal wall area (IWA) (ApoE/LDLR−/− mice [5]; [7]): decreased only in the middle part of the vessel
decrease in lipid core expressed as percent of plaque (ApoE/LDLR−/− mice [5]; similarly after low and high dose): about 17%
decrease in vessel wall area (VWA) of BCA (ApoE/LDLR−/− mice [5]; similarly for low (0.03) and high (10 mg/kg b.w./day) dose): about 5%
content of collagen in plaque (ApoE/LDLR−/− mice [5]; treated vs untreated groups): lack of differences
mean reduction of levels of uncarboxylated MGP (matrix gla protein (MGP)): 55%
lipid profile, liver enzymes concentration, blood cell count [6]: did not affect
